From US20130237609A1, “CELLULOSE DERIVATIVES FOR ENHANCING BIOAVAILABILITY OF FLAVONOIDS” (priority 2011, published 2013)
Converted amounts (≈) assume the structure as drawn. Where two headings read alike, the source gives them in different places.

Columns and labels:
[1] = cited from earlier work
[2] = pH 7.4 buffer; cited from earlier work
[3] = Curcumin release profile, pH 1.2 buffer; type: physicochemical; conditions: polymer label = amorphous blend of curcumin with that polymer
[4] = Contact angle of water on spin-coated films; type: physicochemical; conditions: Cur/polymer weight ratio, PVP samples: initial value
[5] = Curcumin release profile, pH 6.8 buffer; type: physicochemical; conditions: pH 6.8, UV-Vis
[6] = with piperine as metabolic inhibitor, in humans; cited from earlier work
[7] = Curcumin stability in buffer (degradation plus crystallization), UV-Vis, no EtOH added; conditions: after 5 h, no EtOH dilution
[8] = Curcumin stability in pH 7.4 buffer, HPLC after EtOH dilution; type: physicochemical; conditions: 24 h, room temperature, EtOH dilution before measurement
Method: […]. Samples were incubated at room temperature for indicated times. After incubation, the reaction mixtures were diluted by 1 mL of ethanol and the UV-Vis absorption of the diluted solution was measured; then the diluted solution was filtered through a 1 μm PVDF membrane filter, and the filtrate was analyzed by HP LC. HPLC was performed with an Agilent 1200 series liquid chromatograph equipped with a 1200 quaternary pump, a variable wavelength UV/Vis detector and an Eclipse XDB-C18 column (150×4.6 mm, 5 μm particle size) using the mixture of 40% THF, 60% water and 1% acetic acid (pH 3.0) as mobile phase.
(Wang 1997). Such chemical degradation is likely the result of retro-aldol reactions. (Priyadarsini 2009). […] This experiment differs from the literature report in that the inventors use ethanol to dilute the incubated aqueous curcumin solution just prior to measurement, to make sure that any crystallized curcumin is re-dissolved for detection. […]

[9] = formulated as nanocrystals, solid dispersion in HPMCAS, nanoemulsion (Onoue 2010); cited from earlier work
[10] = Curcumin stability in buffer, UV-Vis after EtOH dilution; type: physicochemical

O=c1c(O)c(-c2ccc(O)c(O)c2)oc2cc(O)cc(O)c12 [Quercetin]
Solubility [1]: 0.4 µg/mL (≈ 1.32 µM)

COc1cc(/C=C/C(=O)CC(=O)/C=C/c2ccc(O)c(OC)c2)ccc1O [Curcumin, 1,7-bis(4-hydroxy-3-methoxyphenyl)-1,6-heptadiene-3,5-dione]
half-life of curcumin [2]: 5.4 min
dissolution [3]: virtually no dissolution
contact angle of water on film [4]: 102 °
Cur release concentration [5]: below the UV/Vis detection limit
improvement of curcumin oral bioavailability [6]: up to 20 fold
curcumin remained in solution ([7]; pH 6.8 buffer): ~44%
curcumin remained in solution ([7]; pH 7.4 buffer): around 40%
curcumin degraded (HPLC, curcumin peak RT 6.0 min) [8]: 36%
improvement of oral bioavailability of curcumin [9]: 9-16 fold
Cur degraded (UV-Vis) ([10]; pH 6.8, after 5 h, EtOH dilution): 7%
Cur degraded (UV-Vis) ([10]; pH 7.4, after 5 h, EtOH dilution): 16%
Cur degraded (UV-Vis) ([10]; pH 7.4 buffer, 24 h, EtOH dilution before measurement): 33%
Solubility [1]: 3 µg/mL (≈ 8.14 µM)

O=c1oc2c(O)c(O)cc3c(=O)oc4c(O)c(O)cc1c4c23 [Ellagic Acid]
Solubility [1]: 10 µg/mL (≈ 33.1 µM)

COC1=CC(=O)C[C@@H](C)[C@]12Oc1c(Cl)c(OC)cc(OC)c1C2=O [griseofulvin]
Solubility (physchem; solubility of crystalline griseofulvin): 12 µg/mL (≈ 34 µM)
Solubility (physchem; solubility of griseofulvin in the polymer matrix): ≤ 30000 µg/mL

Oc1ccc(C=Cc2cc(O)cc(O)c2)cc1 [Resveratrol]
Solubility [1]: <0.1 µg/mL
